Measured values reported in patent publication US20020031520A1, “PREVENTION AND TREATMENT OF HEPATOCELLULAR CANCER” (priority 1997, published 2002).
Where no end group is shown, it is not given here.

Legend:
AFP+/HLA A2.1+ HepG2 = assay: 4 hour 51Cr-release assay of peptide-generated CTL against HepG2; assay type: cell-based, human
Description: IL-2 was added twice weekly at 10 units/ml. […] Non-specific NK killing was assessed with the NK sensitive target K562. The CTL were also tested against the HLA A2.1-positive, AFP-positive human hepatocellular carcinoma cell line, HepG2. Referring now to Table III, there are shown the cytotoxicity results of tests for the twelve AFP peptide sequences used to generate CTL from normal donors that gave positive peptide cytotoxicity results. […] Further, new AFP49 peptide-generated CTL cultures were made using two different, normal HLA A2.1 donors. Additional targets were used to confirm that the cytotoxicity observed using AFP49 was AFP antigen-specific and class I restricted. Referring now to FIG. 1, there is shown representative data of these tests. First, to confirm that the observed cytotoxicity was class I restricted, anti-β2 microglobulin antibody was used to block the CTL-T cell receptor interaction on HepG2 cells. […] Next, to eliminate non-specific NK/LAK killing, a 40-fold excess of unlabeled (cold) K562 cells was added. […] Also, an AFP+, HLA A2.1-negative hepatocellular carcinoma cell line, Hep3B, that is, a class I-mismatched hepatocellular carcinoma cell line, was also used as a target. […] This small amount of observed Hep3B lysis was eliminated by adding an excess of cold K562 cells, in contrast to the retention of specific killing of HepG2 when cold K562 cells were added.

HLA A2.1 [1] = molecular target: T1, HLA A2.1 (Homo sapiens, UniProt P04439, D140Y/D185E/D98H/E176V/E277Q/G131W/G231S/I119V/I121R/I166T/I218V/L300P/L318F/N151K/N90K/P208A/P217A/Q86G/Q94H/R138H/R169H/T345S); assay: T2 cell stabilization assay; assay type: binding; conditions: peptide tested 0.1 μM-100 μM; flow cytometry with BB7.2; (n.s.) = not stable
HLA A2.1 [2] = molecular target: T1, HLA A2.1; assay: EBV lymphoblastoid cell off-kinetics assay; assay type: binding; conditions: for Time of Peptide Stability on Lymphoblastoid Cells: pulsed at 200 μM for 1 hour, followed 0, 2, 4 and 6 hours at 37° C., (n.s.) = not stable
Source text: The cells were washed at the end of each time point and stained for HLA A2 with the BB7.2 antibody.

[3] = test system: M202 (HLA A2.1+/AFP-) melanoma cells transduced with AdVhAFP; assay: chromium release assay of peptide-specific CTL against M202 cells transduced with AdVhAFP or control AdVRR5; assay type: cell-based, human; conditions: FIG. 2
[4] = test system: T2 cells pulsed with the specific peptide; conditions: FIG. 2; T2 pulsed with specific peptide versus a different HLA A2.1 binding peptide

PVNPGVGQC [AFP39]
AFP+/HLA A2.1+ HepG2 Cytotoxicity (AFP+/HLA A2.1+ HepG2; E:T 10:1): 12% | AFP+/HLA A2.1+ HepG2 Cytotoxicity (AFP+/HLA A2.1+ HepG2; E:T 50:1): 29%

KLVLDVAHV [AFP4]
AFP+/HLA A2.1+ HepG2 Cytotoxicity (AFP+/HLA A2.1+ HepG2; E:T 5:1): 4% | AFP+/HLA A2.1+ HepG2 Cytotoxicity (AFP+/HLA A2.1+ HepG2; E:T 20:1): 7%

KELRESSLL [AFP16, residues 211-219 of hAFP]
Minimum Concentration of Peptide to Stabilize A2 on T2 cells (HLA A2.1 [1]): (n.s.) | Time of Peptide Stability on Lymphoblastoid Cells (HLA A2.1 [2]): 2 h

YICSQQDTL [AFP28, residues 287-295 of hAFP]
Minimum Concentration of Peptide to Stabilize A2 on T2 cells (HLA A2.1 [1]): 50 µM | Time of Peptide Stability on Lymphoblastoid Cells (HLA A2.1 [2]): 2 h

GVALQTMKQ [AFP49]
AFP+/HLA A2.1+ HepG2 Cytotoxicity (AFP+/HLA A2.1+ HepG2; E:T 10:1): 17% | AFP+/HLA A2.1+ HepG2 Cytotoxicity (AFP+/HLA A2.1+ HepG2; E:T 50:1): 45%

SLVVDETYV [AFP17, residues 514-522 of hAFP]
Minimum Concentration of Peptide to Stabilize A2 on T2 cells (HLA A2.1 [1]): 1.0 µM | Time of Peptide Stability on Lymphoblastoid Cells (HLA A2.1 [2]): (n.s.)

TMKQEFLINL [AFP22]
AFP+/HLA A2.1+ HepG2 Cytotoxicity (AFP+/HLA A2.1+ HepG2; E:T 5:1): 9% | AFP+/HLA A2.1+ HepG2 Cytotoxicity (AFP+/HLA A2.1+ HepG2; E:T 20:1): 24%

MKWVESIFL [AFP38]
AFP+/HLA A2.1+ HepG2 Cytotoxicity (AFP+/HLA A2.1+ HepG2; E:T 10:1): 0% | AFP+/HLA A2.1+ HepG2 Cytotoxicity (AFP+/HLA A2.1+ HepG2; E:T 50:1): 12%

FMNKFIYEI [AFP5]
AFP+/HLA A2.1+ HepG2 Cytotoxicity (AFP+/HLA A2.1+ HepG2; E:T 5:1): 4% | AFP+/HLA A2.1+ HepG2 Cytotoxicity (AFP+/HLA A2.1+ HepG2; E:T 20:1): 7%

ILLWAARYD [AFP18, residues 178-186 of hAFP]
Minimum Concentration of Peptide to Stabilize A2 on T2 cells (HLA A2.1 [1]): (n.s.) | Time of Peptide Stability on Lymphoblastoid Cells (HLA A2.1 [2]): >6 h

TLSNKITEC [AFP60, residues 294-302 of hAFP]
Minimum Concentration of Peptide to Stabilize A2 on T2 cells (HLA A2.1 [1]): 50 µM | Time of Peptide Stability on Lymphoblastoid Cells (HLA A2.1 [2]): (n.s.)

KMVKDALTAI [AFP64, residues 65-74 of hAFP]
Minimum Concentration of Peptide to Stabilize A2 on T2 cells (HLA A2.1 [1]): 100 µM | Time of Peptide Stability on Lymphoblastoid Cells (HLA A2.1 [2]): (n.s.)

FQKLGEYYL [AFP34, residues 419-427 of hAFP]
Minimum Concentration of Peptide to Stabilize A2 on T2 cells (HLA A2.1 [1]): 100 µM | Time of Peptide Stability on Lymphoblastoid Cells (HLA A2.1 [2]): (n.s.)

YIQESQALA [AFP13, residues 404-412 of hAFP]
Minimum Concentration of Peptide to Stabilize A2 on T2 cells (HLA A2.1 [1]): 10.0 µM | Time of Peptide Stability on Lymphoblastoid Cells (HLA A2.1 [2]): >2 h

FVQEATYKF [AFP8, residues 54-62 of hAFP]
Minimum Concentration of Peptide to Stabilize A2 on T2 cells (HLA A2.1 [1]): (n.s.) | Time of Peptide Stability on Lymphoblastoid Cells (HLA A2.1 [2]): >2 h

KQEFLINLV [AFP37]
AFP+/HLA A2.1+ HepG2 Cytotoxicity (AFP+/HLA A2.1+ HepG2; E:T 5:1): 0% | AFP+/HLA A2.1+ HepG2 Cytotoxicity (AFP+/HLA A2.1+ HepG2; E:T 25:1): 2%

QLTSSELMAI [AFP14, residues 441-450 of hAFP]
Minimum Concentration of Peptide to Stabilize A2 on T2 cells (HLA A2.1 [1]): 50.0 µM | off-kinetics (in words) (HLA A2.1 [2]): slow off-kinetics | Time of Peptide Stability on Lymphoblastoid Cells (HLA A2.1 [2]): >2 h

GVALQTMKL (listed as Homo sapiens) [AFP49L9, single amino acid substitution in position 9 of AFP49]
killing of M202/AdVhAFP compared with AFP49 peptide-specific CTL cultures [3]: even more effectively | killing of M202/AdVhAFP versus M202/RR5 [3]: significantly more killing of M202 cells transduced with AdVhAFP

FQAITVTKL [AFP45]
AFP+/HLA A2.1+ HepG2 Cytotoxicity (AFP+/HLA A2.1+ HepG2; E:T 10:1): 9% | AFP+/HLA A2.1+ HepG2 Cytotoxicity (AFP+/HLA A2.1+ HepG2; E:T 50:1): 27%

NLVKQKPQI [AFP23]
AFP+/HLA A2.1+ HepG2 Cytotoxicity (AFP+/HLA A2.1+ HepG2; E:T 5:1): 2% | AFP+/HLA A2.1+ HepG2 Cytotoxicity (AFP+/HLA A2.1+ HepG2; E:T 20:1): 15%

LLNFTESRT [AFP7]
AFP+/HLA A2.1+ HepG2 Cytotoxicity (AFP+/HLA A2.1+ HepG2; E:T 10:1): 6% | AFP+/HLA A2.1+ HepG2 Cytotoxicity (AFP+/HLA A2.1+ HepG2; E:T 50:1): 15%

GVALQTMKV (listed as Homo sapiens) [AFP49V9]
killing of M202/AdVhAFP compared with AFP49 peptide-specific CTL cultures [3]: even more effectively | killing of M202/AdVhAFP versus M202/RR5 [3]: significantly more killing of M202 cells transduced with AdVhAFP | peptide specificity of CTL culture [4]: showed peptide specificity
